Source: ChEMBL document CHEMBL1130698, “Design and synthesis of new potent, silent 5-HT1A antagonists by covalent coupling of aminopropanol derivatives with selective serotonin reuptake inhibitors” (Bioorg Med Chem Lett, 1998)
pKi: −log10 of the molar value.

Key:
[1] = target: T1, 5-hydroxytryptamine receptor 1A (Homo sapiens) (UniProt P08908); assay: Antagonistic potency as binding affinity of 5-HT stimulated [35S]GTP gamma S to human 5-HT1A receptor; assay type: functional
T1 sequence (whole entry): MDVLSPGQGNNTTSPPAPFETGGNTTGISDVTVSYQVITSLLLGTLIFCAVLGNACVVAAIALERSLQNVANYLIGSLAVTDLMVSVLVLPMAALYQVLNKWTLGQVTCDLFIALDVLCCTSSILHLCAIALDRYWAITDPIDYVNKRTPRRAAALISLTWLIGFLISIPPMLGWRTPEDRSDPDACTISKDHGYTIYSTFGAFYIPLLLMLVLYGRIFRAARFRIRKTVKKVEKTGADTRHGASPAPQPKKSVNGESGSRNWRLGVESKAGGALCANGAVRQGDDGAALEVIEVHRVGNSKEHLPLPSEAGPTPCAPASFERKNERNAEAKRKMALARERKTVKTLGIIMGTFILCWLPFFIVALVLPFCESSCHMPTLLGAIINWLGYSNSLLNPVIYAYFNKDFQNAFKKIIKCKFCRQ

[2] = target: T2, 5-hydroxytryptamine receptor 1A (Homo sapiens, UniProt P08908); assay: Displacement of [3H]8-OH-DPAT from human 5-HT1A receptor
T2 sequence (P08908 whole entry): T1 sequence (whole entry)

Row | Structure (SMILES) | Kb [1] [nM] | pKi [2]
1 | O[C@H](COc1cccc2[nH]ccc12)CN1CC[C@@H](c2ccc(F)cc2)[C@H](COc2ccc3c(c2)OCO3)C1 | 0.7 | 8.23
2 | CCN(CC)C(=O)[C@@]1(c2ccccc2)C[C@H]1CNCC(O)COc1cccc2[nH]ccc12 (some centres undefined) | 14.8 | 7.34
3 | OC(CNCCCCCCN1CC[C@H](c2ccc(F)cc2)[C@@H](COc2ccc3c(c2)OCO3)C1)COc1cccc2[nH]ccc12 (some centres undefined) | 4.3 | 8.17
4 | OC(CNCCCCCCNCCC(Oc1ccc(C(F)(F)F)cc1)c1ccccc1)COc1cccc2ccccc12 (centres undefined) | 1730 | 6.41
5 | O[C@H](CNCC[C@H](Oc1ccc(C(F)(F)F)cc1)c1ccccc1)COc1cccc2[nH]ccc12 | 1.4 | 7.22
6 | OC(CNCCC(Oc1ccc(C(F)(F)F)cc1)c1ccccc1)COc1cccc2[nH]ccc12 (centres undefined) | 2.2 | 7.73

Further lines, results first:

Row | Kb [1] [nM] | pKi [2] | Structure (SMILES)
7 | 188 | 6.81 | OC(CNCCCCCCN1CC[C@H](c2ccc(F)cc2)[C@@H](COc2ccc3c(c2)OCO3)C1)COc1cccc2ccccc12 (some centres undefined)
8 | 15.2 | 7.44 | OC(CNCCC(Oc1ccc(C(F)(F)F)cc1)c1ccccc1)COc1ccccc1C1CCCC1 (centres undefined)
9 | 7.5 | 7.80 | O[C@@H](COc1cccc2[nH]ccc12)CN1CC[C@@H](c2ccc(F)cc2)[C@H](COc2ccc3c(c2)OCO3)C1
10 | 0.2 | 8.11 | O[C@@H](CNCC[C@H](Oc1ccc(C(F)(F)F)cc1)c1ccccc1)COc1cccc2[nH]ccc12
11 | 37.9 | 7.48 | O[C@@H](CNCC[C@H](Oc1ccc(C(F)(F)F)cc1)c1ccccc1)COc1cccc2ccccc12
12 | 388 | 6.85 | O[C@H](CNCC[C@H](Oc1ccc(C(F)(F)F)cc1)c1ccccc1)COc1cccc2ccccc12
